In PubChem BioAssay AID504675 (Southern Research Specialized Biocontainment Screening …, 2011):

System: E. coli UTI89 K1 capsule, phage K1F lysis, OD600
Test: inhibition of K1F phage lysis of E. coli UTI89, dose response, capsule biogenesis inhibitor project, strain UTI89, C7 control, set 3 (AID 504675)
Conditions: measured here: cytotoxicity test

Structure (SMILES) | CC50
COc1ccc2nc(NC(=O)c3ccccc3)sc2c1 | 45.4 µM
COc1ccc2nc(NC(=O)c3ccco3)sc2c1 | 93.4 µM
COc1cccc(C(=O)Nc2nc3ccc(OC)cc3s2)c1 | 23.4 µM
COc1cccc(-c2cc(C(=O)O)c3ccccc3n2)c1 | 78.3 µM
COc1ccc2nc(NC(=O)c3ccccc3OC)sc2c1 | 66.8 µM
COc1ccc(C(=O)Nc2nc3ccc(OC)cc3s2)cc1 | > 300 µM
COc1ccc2nc(NC(=O)c3cccs3)sc2c1 | 104 µM
N=c1n(CCN2CCCC2)c2ccccc2n1CC(O)c1ccc(Cl)c(Cl)c1 (stereo not given) | 9.38 µM
O=C(O)c1cc(-c2cccc(F)c2)nc2ccccc12 | > 300 µM
COc1ccc2nc(NC(=O)c3ccc(F)cc3)sc2c1 | 21.7 µM
